# Measurements from ChEMBL document CHEMBL1149858, “Degradation-promoters of cellular inhibitor of apoptosis protein 1 based on bestatin and actinonin” (Bioorg Med Chem, 2008).
# Active and inactive are the calls of the source. No cut-off for these calls is given here.
# Columns and labels:
# [1] = system: HT-1080; test: Enhancement of anti-Fas antibody CH11-induced apoptosis of human HT1080 cells at 30 uM after 24 hrs; format: functional, cell-based
# [2] = system: HT-1080; test: Enhancement of actinomycin D-induced apoptosis of human HT1080 cells at 10 uM; format: functional, cell-based
# [3] = system: HT-1080; test: Enhancement of cisplatin-induced apoptosis of human HT1080 cells at 10 uM; format: functional, cell-based
# [4] = system: HT-1080; test: Enhancement of etoposide-induced apoptosis of human HT1080 cells at 10 uM; format: functional, cell-based
# [5] = system: HT-1080; test: Enhancement of camptothecin-induced apoptosis of human HT1080 cells at 10 uM; format: functional, cell-based
# [6] = biological target: Baculoviral IAP repeat-containing protein 2 (Homo sapiens, UniProt Q13490); test: Promotion of flag-tagged cIAP1 degradation in human HT1080 cells assessed as decrease in cIAPI production after 3 hrs; format: cell-based, HT-1080
# Sequence of Baculoviral IAP repeat-containing protein 2 (Q13490 whole entry): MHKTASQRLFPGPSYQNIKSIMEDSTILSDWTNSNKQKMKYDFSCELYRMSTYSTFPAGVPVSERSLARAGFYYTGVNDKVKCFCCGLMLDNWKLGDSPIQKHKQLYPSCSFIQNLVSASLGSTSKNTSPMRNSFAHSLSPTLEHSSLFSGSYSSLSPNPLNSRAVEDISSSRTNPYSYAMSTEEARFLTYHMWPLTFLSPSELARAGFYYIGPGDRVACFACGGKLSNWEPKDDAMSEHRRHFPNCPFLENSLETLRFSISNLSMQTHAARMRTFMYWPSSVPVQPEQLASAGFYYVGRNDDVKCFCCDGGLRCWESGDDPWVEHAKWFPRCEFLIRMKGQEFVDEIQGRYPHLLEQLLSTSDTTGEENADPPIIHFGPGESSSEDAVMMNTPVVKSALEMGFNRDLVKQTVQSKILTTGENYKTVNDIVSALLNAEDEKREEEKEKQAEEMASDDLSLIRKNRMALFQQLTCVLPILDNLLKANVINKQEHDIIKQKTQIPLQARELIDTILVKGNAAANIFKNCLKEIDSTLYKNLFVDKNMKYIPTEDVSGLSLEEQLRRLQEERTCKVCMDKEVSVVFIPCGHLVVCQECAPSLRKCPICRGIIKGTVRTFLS
IC50 [6],Activity ([6]; HT-1080),SMILES,Activity [1],Activity [2],Activity [3],Activity [4],Activity [5]
–,–,COC(=O)[C@H](CC(C)C)NC(=O)[C@@H](O)[C@H](N)Cc1ccccc1,Active,Active,Active,Active,Active
> 20 µM,–,CCCCC[C@H](CC(=O)NO)C(=O)N[C@H](C(=O)OC)C(C)(C)C,–,–,–,–,–
–,–,CCCCC[C@H](CC(=O)NO)C(=O)N[C@@H](C)C(=O)OC,–,Active,Active,Active,Active
–,inactive,COC(=O)[C@H](CC(C)C)NC(=O)[C@H](N)CC(=O)NO,–,–,–,–,–
